We go through two molecules from patent US20110059070A1, “Combination therapy for tumoral desease treatment” (Ramot At Tel Aviv University Ltd., priority 2006, published 2011).

In data set [1] the test system is K562 cells. Nature of the data set: Complement-mediated lysis of K562 cells (Trypan blue inclusion). The data set is classed as cell-based, human. The settings on record: for effect on complement-mediated lysis (percent cell lysis): K562 cells pretreated 60 minutes at 37° C. at different concentrations, then anti-K562 antibodies and NHS, Trypan Blue. The procedure:
FIG. 1 is a histogram depicting the sensitization of cells to complement mediated lysis by MKT-077. K562 cells were pretreated for 1 hour at 37° C. with increasing concentrations of MKT-077 [or double distilled water (DDW); NT] and then treated with a sublytic dose of anti-K562 antibody (1:14) and complement [Normal human serum (NHS)] or heat-inactivated NHS (HI-NHS). After incubation for 1 hour at 37° C., percent cell lysis was measured with 0.2% Trypan Blue. Results present the percentage of cell lysis and are representative of four independent experiments. P<0.01 between NT group and the other groups.
K562 cells were treated for 60 minute at 37° C. with different concentrations of MKT-077 or Rhodamine123 (Rho123), followed by treatment for another 60 minutes with anti-K562 antibodies and NHS or HI-NHS and the cell lysis was measured by Trypan blue inclusion. Results are representative of three independent experiments. *P<0.05, between cells treated with NHS and MKT-077 and cells treated with NHS without MKT-077.
(§1) Cell lysis and collection of secreted vesicles—Cytotoxicity assay was performed as described before [Reiter, Y. and Z. Fishelson, Complement membrane attack complexes induce in human leukemic cells rapid expression of large proteins (L-CIP). Mol Immunol, 1992. 29(6): p. 771-81]. […] Cell lysis was determined by Trypan blue inclusion. Statistical significance was analyzed by using the two-sided unpaired Student's t-test. […]
MKT-077 sensitizes cells to complement-mediated lysis—Human K562 erythroleukemia cells were pretreated for 60 minutes at 37° C. with MKT-077, at different concentrations, and then the cells were treated for additional 60 minutes at 37° C. with anti-K562 antibodies for 30 minutes on ice and with complement (NHS) or heat-inactivated NHS (HI-NHS) as control. Finally, cells were washed and percent cell lysis was quantified by Trypan Blue inclusion. […]

The conditions of data set [2]: cited from earlier work.
The test system of data set [3] is human tumor cells. Particulars: human tumor cells tested; cited from earlier work.
In data set [4] the test system is K562 cells. Nature of the data set: Release of mortalin and C9 by vesiculation after complement attack (Western blot). The class given is cell-based, human. Particulars: K562 cells pretreated 1 hour with 200 μM or 50 μM, sublytic anti-K562 antibodies and NHS. The procedure: K562 cells pretreated with 50 μM MKT-077 (or with double distilled water) were treated for 10 minutes at 37° C. with a sublytic dose of anti-K562 antibody and NHS or HI-NHS. Then, the cells were washed 4 times with Hank's Balanced Salt Solution (HBSS; Sigma, Rehovot, Israel), incubated for 10 minutes at 37° C. and supernatant were collected. Released proteins were first sedimented at 5,000 g for 15 minutes and then centrifuged at 100,000 g for 30 minutes for vesicles isolation. High-speed supernatant and pellets were analyzed by SDS-PAGE and Western Blotting with anti-mortalin (FIG. 2a) or anti-C9 (FIG. 2b) antibodies. Results are representative of three independent experiments.
as §1
Protein analysis—Protein concentration was analyzed with the BCA Protein Assay Kit (Pierce, Rockford, Ill., USA). […]

The conditions of data set [5]: cited from earlier work. This is another data set of the same source.
Data set [6] has as its system K562 cells. Nature of the data set: A23187-mediated lysis of K562 cells. The data set is classed as cell-based, human. The settings on record: K562 treated 1 hour at 37° C. with increased concentrations of A23187 and 50 μM MKT-077. On the procedure:
(§2) FIG. 4a—K562 cells were pretreated for 1 hour at 37° C. with 50 μM MKT-077 and then treated with 900 and 1200 units ml^−1 SLO or with DTT as control. After 15 minutes at 37° C., cell lysis was measured by Trypan blue inclusion. Results are representative of three independent experiments. FIG. 4b—K562 cells were treated for 1 hour at 37° C. with increased concentrations of A23187 and with 50 μM MKT-077. Cell lysis was then measured by Trypan blue inclusion. Results present the percentage of cell lysis and are representative of three independent experiments.
(§3) MKT-077 has no effect on SLO-mediated lysis and A23187-mediated lysis—The present inventors have further addressed the question of specificity of the effect of MKT-077 on cell death. The effect of MKT-077 on cell death induced by Streptolysin O (SLO), another cytolytic pore-forming protein, was examined. Cells were pretreated with MKT-077 and then treated with several doses of SLO or with dithiothreitol (DTT) as control. Lysis was measured after 15 minutes incubation at 37° C. Results presented in FIG. 4a show no effect of MKT-077 on SLO-mediated lysis. The present inventors have further examined the effect of MKT-077 on cell death induced by the Ca^+2 ionophore A23187. […] Next, the cells were washed and percent cell death was measured.

Data set [7] deals with T1, mortalin binding to C9 (Homo sapiens, UniProt P38646).
T1 construct: incubated with K562 lysates (source for mortalin), with or without MKT-077; endogenous in cells; host or cells: K562 cell lysate
T1 sequence (P38646 47-679): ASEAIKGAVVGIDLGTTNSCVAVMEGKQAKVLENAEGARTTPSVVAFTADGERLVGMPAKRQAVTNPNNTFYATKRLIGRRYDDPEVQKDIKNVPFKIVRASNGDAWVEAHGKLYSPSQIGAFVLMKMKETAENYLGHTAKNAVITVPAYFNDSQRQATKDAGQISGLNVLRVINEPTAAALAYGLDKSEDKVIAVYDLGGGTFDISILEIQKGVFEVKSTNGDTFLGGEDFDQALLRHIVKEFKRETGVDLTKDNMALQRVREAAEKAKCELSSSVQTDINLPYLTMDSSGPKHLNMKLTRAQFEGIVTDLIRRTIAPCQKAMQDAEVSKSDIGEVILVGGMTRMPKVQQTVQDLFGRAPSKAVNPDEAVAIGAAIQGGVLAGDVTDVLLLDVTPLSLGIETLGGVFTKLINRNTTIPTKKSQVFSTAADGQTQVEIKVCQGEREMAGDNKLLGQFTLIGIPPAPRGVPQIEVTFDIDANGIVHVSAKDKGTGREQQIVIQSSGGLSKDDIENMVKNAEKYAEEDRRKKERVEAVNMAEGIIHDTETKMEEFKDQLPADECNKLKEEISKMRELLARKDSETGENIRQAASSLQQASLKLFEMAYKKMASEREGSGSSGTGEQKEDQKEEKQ
Nature of the data set: Binding of mortalin to complement C9 (ELISA). Particulars: K562 cell lysate with or without 50 μM MKT-077 on C9-coated wells; P<0.005. On the procedure: FIG. 5 is a histogram depicting the interference of MKT-077 with binding of mortalin to C9. Microtiter plate wells were coated overnight with C9 or BSA (0.5 μg per well) and then incubated with K562 cell lysate (40×10^6 cells ml^−1 lysis buffer) diluted 1:25 with or without 50 μM MKT-077. The wells were washed and treated with anti-mortalin antibody and peroxidase-labeled second antibody, developed with o-phenilenediamine (OPD) and analyzed in an ELISA reader. Results present the quantity of mortalin in each experimental group and are representative of three independent experiments. *,P<0.005 between groups with and without MKT-077.
Binding of mortalin to complement C9—Binding of mortalin to the complement C9 protein was examined by ELISA analysis. In brief, purified human C9 and BSA (0.5 μg per well each) were bound overnight at 4° C. to a 96-well Enzyme Immunoassay (EIA) plate (Corning, N.Y., USA). Diluted cell lysate prepared from 40×10^6 K562 cells as described above was added to each well for 60 minutes at 37° C. After washes, monoclonal mouse anti-mortalin antibody (diluted 1:500) was added for 30 minutes at 37° C. and then peroxidase-conjugated goat anti-mouse IgG was added for 30 minutes at room temperature. Next, o-phenylenediamine (Sigma) was added and the plate was examined in a Spectrafluor Plus plate reader (Tecan, Austria) at 450 nm. […]
A general note: An ELISA detects its analyte on a solid surface through an enzyme-linked reagent.

For data set [8], the system named is HCT116 colon carcinoma cell line (HCT) p53 +/+ and HCT p53 −/− cells. The data set can be described thus: Complement-mediated lysis of HCT p53 +/+ and HCT p53 −/− cells. The data set is classed as cell-based. Particulars: HCT p53 +/+ versus HCT p53 −/− cells. The procedure: FIG. 3 is a histogram depicting that the effect of MKT-077 on complement-mediated lysis is p53-independent. HCT116 colon carcinoma cell line (HCT) p53 +/+ and HCT p53 −/− cells were pretreated for 1 hour at 37° C. with 50 μM MKT-077 and then treated with a lytic dose of anti-K562 antibody (1:9) and NHS or HI-NHS. After incubation for 1 hour at 37° C., percent cell lysis was measured by Trypan blue inclusion. Results present the percentage of cell lysis and are representative of three independent experiments.
Cell lysis and collection of secreted vesicles—Cytotoxicity assay was performed as described before [Reiter, Y. and Z. Fishelson, Complement membrane attack complexes induce in human leukemic cells rapid expression of large proteins (L-CIP). Mol Immunol, 1992. 29(6): p. 771-81]. Briefly, for a cell lysis assay, cells were incubated with diluted anti-K562 antiserum for 30 minutes at 4° C. and then with complement [NHS or heat-inactivated normal human serum (HI-NHS), 50%] for 60 minutes at 37° C. Cell lysis was determined by Trypan blue inclusion. Statistical significance was analyzed by using the two-sided unpaired Student's t-test. […]
The effect of MKT-077 on complement-mediated lysis is p53-independent—MKT-077 is known to prevent the binding of mortalin to p53 (Wadhwa et al. Cancer Res. 15: 6818-6821, 2000). […] After 60 minutes at 37° C., percent lysis was measured.

For data set [9], the system named is K562 cells. The data set can be described thus: SLO-mediated lysis of K562 cells. The class given is cell-based, human. Particulars: K562 pretreated 1 hour with 50 μM, then 900 and 1200 units ml^−1 SLO, 15 minutes at 37° C. The procedure:
as §2, §3

Setting [10] is: bolus dose (30 minutes i.v. infusion) 126 mg/m^2/week X 4 weeks every 6 weeks.

Like-named read-outs stand apart in the source and are kept apart here.

Turning to `CCn1c(=Cc2cccc[n+]2CC)sc(=C2Sc3ccccc3N2C)c1=O.[Cl-]` [MKT-077], in data set [1], the “effect on complement-mediated lysis (percent cell lysis)” value is reported as “significantly enhances killing”. For the same molecule, the “mortalin dependence of the effect on complement-mediated lysis” value in data set [1] (data not shown) is recorded as “mortalin-dependent”. Moreover, the toxicity result in [2] (cancer patients, continuous i.v. infusion 150 mg/m^2/five days (30 mg/m^2, day, for 5 days)) was “renal toxicity”. In addition, the toxicity entry in data set [2] (five-day infusion (30-50 mg/m^2/day) once every three weeks, chemo-resistant solid tumors) is “renal toxicity”. For the same molecule, in data set [3], the “IC50 concentrations required in vitro” value was 0.15-0.5 microgram/ml. Besides, the “release of C9 by vesiculation” value in data set [4] (Western blot anti-C9) is listed as “inhibited”. Also, in [4] (Western blot anti-mortalin), the “release of mortalin by vesiculation” value is given as “inhibited”. Also, in data set [5] (setting [10]), the associated toxicity result was “hypomagnesemia (kidney toxicity)”, the plasma concentrations is on record as 1.2-6.3 microgram/ml and the tolerability result is listed as “well tolerated”. In data set [5] (single bolus weekly infusion (42 mg/m^2) for 4 weeks every 6 weeks), the toxicity entry is “manageable hypomagnesemia”. Besides, the “effect on A23187-mediated lysis” value in data set [6] is reported as “no effect”. Also, in data set [7], the “ability of mortalin to bind C9” value was “significant decrease”. Moreover, in data set [8], the “p53 dependence of the complement sensitization effect” value was “presence or absence of p53 had no effect”. Also, in data set [9], the “effect on SLO-mediated lysis” value is on record as “no effect”.

Consider Rhodamine123, for which, in data set [1], the “effect on complement-mediated lysis (percent cell lysis)” value is given as “no effect”.
